Test results as given in PubChem BioAssay (NCI).
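Cells were grown in 96-well plates and exposed to each compound for 48 hours at five concentrations; endpoints were interpolated linearly between bracketing concentrations, or set to the highest concentration if not reached. TGI is the concentration that stops growth completely.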

Experiments:
Assay in all cases: DTP human tumour cell line panel, 48 h
NCI-H522 lung = system: NCI-H522 lung
TK-10 renal = system: TK-10 renal
SK-MEL-28 melanoma = system: SK-MEL-28 melanoma
HCT-15 colon = system: HCT-15 colon
HOP-62 NSCLC = system: HOP-62 NSCLC
MALME-3M melanoma = system: MALME-3M melanoma
HT29 colon = system: HT29 colon
HCT-116 colon = system: HCT-116 colon
MDA-MB-435 = system: MDA-MB-435
786-0 renal = system: 786-0 renal
UACC-257 melanoma = system: UACC-257 melanoma
SW-620 colon = system: SW-620 colon
NCI-H226 lung = system: NCI-H226 lung
T-47D breast = system: T-47D breast
SNB-19 CNS = system: SNB-19 CNS
SF-539 CNS = system: SF-539 CNS
KM12 colon = system: KM12 colon
LOX IMVI melanoma = system: LOX IMVI melanoma
K-562 leukemia = system: K-562 leukemia
MDA-N = system: MDA-N
NCI/ADR-RES ovarian = system: NCI/ADR-RES ovarian
OVCAR-5 ovarian = system: OVCAR-5 ovarian
UO-31 renal = system: UO-31 renal
EKVX NSCLC = system: EKVX NSCLC
SF-295 CNS = system: SF-295 CNS
SK-MEL-2 melanoma = system: SK-MEL-2 melanoma
HOP-92 NSCLC = system: HOP-92 NSCLC
UACC-62 melanoma = system: UACC-62 melanoma
PC-3 prostate = system: PC-3 prostate
ACHN renal = system: ACHN renal
HCC-2998 colon = system: HCC-2998 colon
OVCAR-8 ovarian = system: OVCAR-8 ovarian
RPMI-8226 leukemia = system: RPMI-8226 leukemia
SK-MEL-5 melanoma = system: SK-MEL-5 melanoma
A549 NSCLC = system: A549 NSCLC
M14 melanoma = system: M14 melanoma
MDA-MB-231 breast = system: MDA-MB-231 breast
HS 578T breast = system: HS 578T breast
NCI-H460 lung = system: NCI-H460 lung
COLO 205 colon = system: COLO 205 colon
RXF 393 renal = system: RXF 393 renal
IGROV1 ovarian = system: IGROV1 ovarian
CAKI-1 renal = system: CAKI-1 renal
HL-60(TB) leukemia = system: HL-60(TB) leukemia
A498 renal = system: A498 renal
NCI-H23 lung = system: NCI-H23 lung
SN12C renal = system: SN12C renal
BT-549 breast = system: BT-549 breast
SNB-75 CNS = system: SNB-75 CNS

With `Cc1cccc(/C=N/NC(=S)N2CCCCCC2)n1` the TGI (NCI-H522 lung) was 0.788 µM, the TGI (TK-10 renal) was 4.8 µM and the TGI (SK-MEL-28 melanoma) was over 100 µM. The TGI (HCT-15 colon) was over 36.3 µM, the TGI (HOP-62 NSCLC) was 1.01 µM and the TGI (MALME-3M melanoma) was 25.3 µM. The TGI (HT29 colon) was over 40 µM, the TGI (HCT-116 colon) was 0.11 µM and the TGI (MDA-MB-435) was 38.9 µM. The TGI (786-0 renal) was 0.775 µM, the TGI (UACC-257 melanoma) was 1.91 µM and the TGI (SW-620 colon) was over 100 µM. For the same molecule, the TGI (NCI-H226 lung) was 7.46 µM, the TGI (T-47D breast) was over 100 µM and the TGI (SNB-19 CNS) was over 100 µM. It also gave a TGI (SF-539 CNS) of 0.549 µM, a TGI (KM12 colon) of over 44.7 µM and a TGI (LOX IMVI melanoma) of 17 µM. The TGI (K-562 leukemia) was over 100 µM, the TGI (MDA-N) was over 45.9 µM and the TGI (NCI/ADR-RES ovarian) was 0.202 µM. The TGI (OVCAR-5 ovarian) was over 72.2 µM, the TGI (UO-31 renal) was 9.91 µM and the TGI (EKVX NSCLC) was 9.32 µM. It also gave a TGI (SF-295 CNS) of 31.7 µM, a TGI (SK-MEL-2 melanoma) of 19.2 µM and a TGI (HOP-92 NSCLC) of over 89.1 µM. The TGI (UACC-62 melanoma) was 1.08 µM, the TGI (PC-3 prostate) was over 72.5 µM and the TGI (ACHN renal) was 1.71 µM. For the same molecule, the TGI (HCC-2998 colon) was over 100 µM, the TGI (OVCAR-8 ovarian) was 0.428 µM and the TGI (RPMI-8226 leukemia) was 0.374 µM. For the same molecule, the TGI (SK-MEL-5 melanoma) was 2 µM, the TGI (A549 NSCLC) was 17.2 µM and the TGI (M14 melanoma) was 0.441 µM. The TGI (MDA-MB-231 breast) was 15.2 µM, the TGI (HS 578T breast) was over 100 µM and the TGI (NCI-H460 lung) was 1.18 µM. The TGI (COLO 205 colon) was 0.632 µM, the TGI (RXF 393 renal) was 38.9 µM and the TGI (IGROV1 ovarian) was 1.55 µM. For the same molecule, the TGI (CAKI-1 renal) was 8.86 µM, the TGI (HL-60(TB) leukemia) was 0.241 µM and the TGI (A498 renal) was 13.5 µM. It also gave a TGI (NCI-H23 lung) of over 37.1 µM, a TGI (SN12C renal) of 0.805 µM and a TGI (BT-549 breast) of 14.4 µM. For the same molecule, the TGI (SNB-75 CNS) was 0.758 µM.
